# Results from PubChem BioAssay (NCI).
#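 1) Cells in 96-well plates. 2) Compound, 48 h, 5 concentrations. 3) Linear interpolation between surrounding doses. 4) Unreached endpoint = highest concentration. GI50 marks 50% less growth. At the TGI there is no net growth.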
# Experiments:
# Assay in all cases: NCI tumour cell line growth inhibition, 48 h
# [1] = system: HCC-2998 colon
# [2] = system: NCI-H460 lung
# [3] = system: RXF 393 renal
# [4] = system: HS 578T breast
# [5] = system: MCF7 breast
# [6] = system: SNB-75 CNS
# [7] = system: CCRF-CEM leukemia
# [8] = system: SF-268 CNS
# [9] = system: KM12 colon
# [10] = system: HCT-15 colon
# [11] = system: A498 renal
# [12] = system: OVCAR-5 ovarian
# [13] = system: NCI-H23 lung
# [14] = system: SK-OV-3 ovarian
# [15] = system: NCI-H522 lung
# [16] = system: CAKI-1 renal
# [17] = system: SF-295 CNS
# [18] = system: IGROV1 ovarian
# [19] = system: SF-539 CNS
# [20] = system: MALME-3M melanoma
# [21] = system: ACHN renal
# [22] = system: SNB-19 CNS
# [23] = system: HOP-62 NSCLC
# [24] = system: SK-MEL-28 melanoma
# [25] = system: MDA-MB-231 breast
# [26] = system: MDA-MB-435
# [27] = system: TK-10 renal
# [28] = system: HOP-92 NSCLC
# [29] = system: MOLT-4 leukemia
# [30] = system: RPMI-8226 leukemia
# [31] = system: SK-MEL-5 melanoma
# [32] = system: UO-31 renal
# [33] = system: K-562 leukemia
# [34] = system: OVCAR-8 ovarian
# [35] = system: U251 CNS
# [36] = system: EKVX NSCLC
# [37] = system: T-47D breast
# [38] = system: HT29 colon
# [39] = system: SN12C renal
# [40] = system: SW-620 colon
# [41] = system: SK-MEL-2 melanoma
# [42] = system: UACC-62 melanoma
# [43] = system: SR leukemia
# [44] = system: HL-60(TB) leukemia
# [45] = system: PC-3 prostate
# [46] = system: A549 NSCLC
# [47] = system: DU-145 prostate
compound,measurement,setting,value
Cc1[nH]nc2ccc(-c3nc4cnc(N5CCN(C)CC5)cn4c3Nc3ccc(F)cc3Br)cc12,GI50,[1],2110 nM
same,TGI,[1],5180 nM
same,GI50,[2],2030 nM
same,TGI,[2],4350 nM
same,GI50,[3],1570 nM
same,TGI,[3],3200 nM
same,GI50,[4],2440 nM
same,TGI,[4],6430 nM
same,GI50,[5],1480 nM
same,TGI,[5],2900 nM
same,GI50,[6],1220 nM
same,TGI,[6],2570 nM
same,GI50,[7],2250 nM
same,TGI,[7],7080 nM
same,GI50,[8],1890 nM
same,TGI,[8],4110 nM
same,GI50,[9],3670 nM
same,TGI,[9],16400 nM
same,GI50,[10],1730 nM
same,TGI,[10],3380 nM
same,GI50,[11],1320 nM
same,TGI,[11],2780 nM
same,GI50,[12],2380 nM
same,TGI,[12],7940 nM
same,GI50,[13],1830 nM
same,TGI,[13],3600 nM
same,GI50,[14],2080 nM
same,TGI,[14],5090 nM
same,GI50,[15],2010 nM
same,TGI,[15],4720 nM
same,GI50,[16],2230 nM
same,TGI,[16],6510 nM
same,GI50,[17],1610 nM
same,TGI,[17],3290 nM
same,GI50,[18],1690 nM
same,TGI,[18],3460 nM
same,GI50,[19],1790 nM
same,TGI,[19],3610 nM
same,GI50,[20],1510 nM
same,TGI,[20],3140 nM
same,GI50,[21],1720 nM
same,TGI,[21],3390 nM
same,GI50,[22],2870 nM
same,TGI,[22],10400 nM
same,GI50,[23],2230 nM
same,TGI,[23],6690 nM
same,GI50,[24],1690 nM
same,TGI,[24],3200 nM
same,GI50,[25],1840 nM
same,TGI,[25],4020 nM
same,GI50,[26],1870 nM
same,TGI,[26],3830 nM
same,GI50,[27],2820 nM
same,TGI,[27],8830 nM
same,GI50,[28],1590 nM
same,TGI,[28],3670 nM
same,GI50,[29],2850 nM
same,TGI,[29],9430 nM
same,GI50,[30],2160 nM
same,TGI,[30],5070 nM
same,GI50,[31],1740 nM
same,TGI,[31],3250 nM
same,GI50,[32],1340 nM
same,TGI,[32],2930 nM
same,GI50,[33],1240 nM
same,TGI,[33],7560 nM
same,GI50,[34],2290 nM
same,TGI,[34],6310 nM
same,GI50,[35],2430 nM
same,TGI,[35],8040 nM
same,GI50,[36],1870 nM
same,TGI,[36],5390 nM
same,GI50,[37],1950 nM
same,TGI,[37],5070 nM
same,GI50,[38],2240 nM
same,TGI,[38],5080 nM
same,GI50,[39],1650 nM
same,TGI,[39],3340 nM
same,GI50,[40],2900 nM
same,TGI,[40],11000 nM
same,GI50,[41],2840 nM
same,TGI,[41],7900 nM
same,GI50,[42],1640 nM
same,TGI,[42],3220 nM
same,GI50,[43],303 nM
same,TGI,[43],> 100000 nM
same,GI50,[44],1790 nM
same,TGI,[44],4810 nM
same,GI50,[45],2470 nM
same,TGI,[45],10200 nM
same,GI50,[46],2810 nM
same,TGI,[46],20500 nM
same,GI50,[47],1990 nM
same,TGI,[47],3930 nM
